The text below walks through data of publication PMC7657664 (Harmful algae, 2020).

In experiment [1] the target is T1, Torpedo-nAChR of embryonic muscle type (α1)2β1γδ (Torpedo marmorata, UniProt P02711+Q6S3H8+Q6S3H9). Nature of the experiment: microplate receptor-binding assay, competition with biotin-α-bungarotoxin.
Experiment [2] deals with T1, Torpedo-nAChR of embryonic muscle type (α1)2β1γδ. The experiment is described as above. This is another data set of the same source.

Where two headings read alike, the source gives them in different places.

As usually defined, the IC50 is the concentration at which inhibition is half-maximal. The low end stands for greater potency, the high end for weaker potency.

`C=CC1=C[C@@H]2[C@@H]3O[C@]4(C[C@H]5CCC[C@@]6(CC[C@@]7(O[C@@H](CC[C@@]7(C)O)CC(=C)CCCC7=NC[C@H](C)[C@@H](C)C[C@@]72CC1)O6)O5)C[C@@H](C)[C@@H](O)[C@H]3O4` [PnTX-G, pinnatoxin-G] returned an IC50 in experiment [1] of 0.0186 µM. In experiment [2], “28-O-palmitoyl ester of pinnatoxin-G [Palmitoyl-PnTX-G]” displayed an IC50 of 13.1 µM.
